Like-named read-outs stand apart in the source and are kept apart here.
What was measured:
[1] = in vivo; cited from earlier work
[2] = tested on: glioblastoma cell nuclei; conditions: cited from earlier work
[3] = value used in Example 2 dose relation; cited from earlier work
[4] = tested on: brain tumour cells; conditions: brain tumour cells / brain tumours; reported; cited from earlier work
[5] = tested on: liver tumours; conditions: reported [26, 27, 39]; cited from earlier work
[6] = tested on: T98G (JCRB9041, human glioblastoma multiforme) cell lines; experiment: Example 3 T98G cell proliferation (Resazurin/alamarBlue) after carbon or helium ion beam irradiation with neutron capture agents; type: cell-based; conditions: 500 μM; for Cell proliferation: 24 h incubation prior to irradiation, up to 168 hours, vs flasks without compound; for radiosensitisation: carbon and helium ion beams
Procedure: The approach of the aforementioned embodiments was tested experimentally. A series of proof-of concept experiments were performed at Japan's HIMAC facility, to quantify the effective increase in biological dose which can be achieved in vitro. Cultured T98-G cancer cells adhered to the inner surface of T25 cell culture flasks were irradiated in carbon and helium ion beams, with and without the presence of realistic concentrations of neutron capture agents.
Three frozen vials of T98G (JCRB9041, human glioblastoma multiforme) cell lines were purchased from the National Institutes of Biomedical Innovation, Health and Nutrition, JCRB Cell Bank and used throughout the experiments.
Prior to the start of the experiments, the cells were revived and passaged twice prior to seeding 160 T25 flasks, with 5 mL of complete growth medium (DMEM+10% FBS). Flasks were incubated at 37±1° C. in an atmosphere of 5±1% CO2.
The experiments utilised ^12C and ^4He beams with 60 mm Spread Out Bragg Peak (SOBP60) spectra, and an approximate dose rate of 1 Gy/min. Cell viability was measured as a function of ion beam dose in cultured T98-G human glioblastoma cells, with and without the presence of two neutron capture agents, ^10B enriched 4-borono-L-phenylalanine (^10B-BPA) and 2,2′,2″-(10-(4-(((triphenylphosphonio)methyl)benzyl)-1,4,7,10-tetraazacyclododecane-1,4,7-triyl)triacetatogadolinium(III) trifluoroacetate (157Gd-DOTA-TPP salt complex).
A set of 300×300×10 mm^3 PMMA slabs were used in conjunction with a PMMA receptacle for holding two flasks. With this arrangement, the flasks containing the cell cultures were positioned inside a cubic 300×300×300 mm^3 PMMA phantom in a plane normal to the incident beam, at a depth corresponding to the midpoint of the SOBP60 as illustrated schematically in FIG. 13. The neutron fluence predicted via Monte Carlo simulation in Example 2 is overlayed on this figure for illustrative purposes. The ion beams were ^12C and ^4He beams with dimensions of 100×100 mm^2 (width×height) and SOBP60 energy spectra with mean energies of 290 MeV/u and 150 MeV/u, respectively (corresponding to SOBP depth ranges of approximately 8 to 14 cm in PMMA).
The irradiation campaign was conducted on four consecutive nights (carbon ion beam irradiations were conducted on the first and third nights, while helium ion beam irradiations were performed on the second and fourth night) at the HIMAC biological beamline. Forty flasks were irradiated during each night, at 80% to 90% confluence (corresponding to ˜3.75×10^5 cells per flask). Twenty-four hours prior to each irradiation, 10 flasks were incubated with 500 μM of ^10B-BPA, while a second set of 10 flasks were incubated with 500 μM of ^157Gd-DOTA-TPP salt complex. The remaining 20 flasks were used as control.
On the night of irradiation, the beam was calibrated for dose rate and dose-depth deposition and the dose-rate at the centre of the Bragg peak (corresponding to the location of the cells) was measured with an ionisation chamber. Immediately prior to irradiation, flasks were filled with a complete DMEM media (˜30 mL per flask). Flasks were irradiated in pairs, with flasks containing the neutron capture agents irradiated together, followed by corresponding control flasks (containing no neutron capture agent). Ten different dose values were used with each ion beam: 0, 0.9, 1.8, 2.3, 2.7, 3.2, 3.6, 4.1, 4.6, and 7.3 Gy for helium, and 0, 0.6, 1.3, 1.6, 1.9, 2.2, 2.5, 2.8, 3.1 and 5 Gy for carbon.
After irradiation, the medium was aseptically removed from the irradiated flasks. Cells were washed with 5 mL of DPBS which was removed and discarded. Cells were then trypsinised, detached from the flasks and resuspended in completed growth medium. Cell count and viability was recorded.
Sixteen 96-well plates were populated each night, each well containing approximately 375 cells, and each set of three wells corresponding to one flask. […]

[7] = in vivo; cited from earlier work; remark: listed apart in the source
[8] = tested on: liver; conditions: normal liver; reported [26, 27, 39]; cited from earlier work
[9] = in vivo, cited from earlier work
[10] = tested on: normal tissues; conditions: reported; cited from earlier work
[11] = Example 2 Monte Carlo simulation and treatment plan, neutron capture dose enhancement in PMMA target; conditions: based on photon activated therapy studies with the same agent, corrected for expected Auger electron production
Procedure: In a further example, a similar set of simulations was conducted. Significance was arbitrarily defined as an average 10% increase in photon-equivalent dose within a tumour resulting from the administration of a non-toxic bolus of neutron-capture agent (though it is envisaged that the method of this embodiment can be used with any desired dose increase factor). To do so, the concentration of neutron capture agent required to provide a 10% increase in effective photon-equivalent dose is determined for a simple simulated therapeutic proton/heavy ion treatment plan, and this is compared with concentrations reported in the literature.
The first step is to evaluate the neutron fluence resulting from pencil-beam irradiation of a point within a target volume. […] Dose and neutron fluence distributions were recorded for each simulation; corresponding distributions at energies in between these were also estimated by interpolating between the distributions obtained at these energies. […] The primary particle fluence at each energy was then weighted such that an approximately flat biological effective dose (BED) was delivered to a defined treatment volume by the ion beam; two 50 mm cubic volumes were evaluated, one centred at a depth of 125 mm and a second centred at a depth of 165 mm. […]

[12] = tested on: T98G (glioblastoma, in vitro); conditions: cited from earlier work
[13] = tested on: GBM (in vitro); conditions: cited from earlier work
[14] = rat, in vivo; cited from earlier work

CC(=O)[O-].CC(=O)[O-].CCc1c(CC)c2cc3nc(cnc4cc(OCCOCCOCCOC)c(OCCOCCOCCOC)cc4ncc4nc(cc1[n-]2)C(CCCO)=C4C)C(C)=C3CCCO.O.[Gd+3] [motexafin-gadolinium]
tumour to healthy tissue uptake ratio [1]: 70:1 | prolonged retention of gadolinium in vitro [2]: up to 2 months | uptake in glioblastoma cell nuclei [2]: 90%

N[C@@H](Cc1ccc([10B](O)O)cc1)C(=O)O [BPA, ^10B-4-borono-L-phenylalanine]
compound biological effectiveness CBE [3]: 3.8 | CBE [4]: 3.6-3.8 | CBE, tumour [5]: 9.94 | Cell proliferation ([6]; carbon beam 0 to 5 Gy): substantially reduced | Cell proliferation ([6]; helium beam): substantially reduced | radiosensitisation [6]: clear and substantial radiosensitisation | concentration ratio (tumour:normal tissue) [7]: 2.8 | CBE, liver [8]: 4.25 | Concentration (PPM) ([9]; iv): 30 ± 12 PPM | Concentration ratio (tumour to healthy tissue) ([9]; iv): 5:1 ^ | highest BPA concentration reported in the literature [9]: 125 ppm | tumour to healthy tissue concentration ratio [9]: 5:1-8:1 | CBE [10]: 0.9-1.3

O=C([O-])C(F)(F)F.O=C([O-])CN1CCN(CC(=O)[O-])CCN(Cc2ccc(C[P+](c3ccccc3)(c3ccccc3)c3ccccc3)cc2)CCN(CC(=O)[O-])CC1.[Gd+3] [^157Gd-DOTA-TPP salt complex]
compound biological effectiveness CBE [11]: ≈ 40 | Cell proliferation ([6]; carbon beam 0 to 5 Gy): substantially reduced | Cell proliferation ([6]; helium beam): substantially reduced | radiosensitisation [6]: clear and substantial radiosensitisation

[Gd] [gadolinium]
values previously published, concentration [12]: up to 3000 ppm

sodium mercaptoundecahydro-closo-dodecaborate [BSH]
CBE, tumour [5]: 4.22 | concentration ratio (tumour:normal tissue) [7]: 0.3 | CBE, liver [8]: 0.94 | tumour to healthy tissue concentration ratio [9]: 1.2-3.5

O=C([O-])CN(CCN(CC(=O)[O-])CC(=O)O)CCN(CC(=O)[O-])CC(=O)O.[Gd+3] [Gd-DTPA]
accumulation within the cell nucleus ([13]; reported [40]): neither accumulates to significant concentration

O=C([O-])CN1CCN(CC(=O)[O-])CCN(CC(=O)O)CCN(CC(=O)[O-])CC1.[Gd+3] [Gd-DOTA]
Concentration (ppM) [13]: 140 (1 h) ppM | accumulation within the cell nucleus [13]: neither accumulates to significant concentration

boron
values previously published, tumour concentration [14]: up to 231 ppm

Reference: patent US11850449B2, “Irradiation method and system” (priority 2017, dated 2023)
